Source: patent publication US20100286762A1, “Compositions and Methods for Ameliorating Clinical Electrical Disturbances” (MUSC Foundation for Research Development, priority 2009, published 2010)
“Also recorded” adds a separate entry of the source.

Columns and labels:
[1] = system: Cx43 hemichannel in HeLa Cx43 cells; assay: Connexon channel (hemichannel) function by EtdBr uptake in live cells; type: cell-based
Procedure: Functional and biochemical assays were used to assess whether the predicted reduction in free-membrane connexons occurs. First, connexon channel (hemichannel) function was assayed using EtdBr uptake in live cells as described by Saez and co-workers. […] In a variant of this experiment, the cells were also cultured at low density such that no GJs could form. Again consistent with the model, in the absence of GJs for free connexons in the membrane to be recruited to, ACT1 had no affect (FIG. 2).

cryoinjured mouse hearts [2] = settings: formulation applied coincident with cryo-infarction; 1 week following the injury; O'Quinn et al., Circulation, 2008; cited from earlier work
[3] = system: neonatal rat ventricular myocytes (NVRMs) monolayers and NCRFs; assay: Adherence of dispersed fibroblasts (NCRFs) to myocyte (NVRM) monolayers; type: cell-based; settings: 48 hr timecourse
Procedure: (§1) FIGS. 4A-4F show ZO-1 regulation of differential adhesion between Cx43 expressing cells. A. Segregation of Cx43-GFP cells from DiI-labeled HeLa Cx43 cells. […] C and D. Cohesion patterns of orange-tagged NVRMs from green-tagged NCRFs following control (top) or ACT1ACT1 (bottom) incubation. […] Scale A=5 um, C, D=25 um.
(§2) In another approach neonatal rat ventricular myocytes (NVRMs) were cultured as monolayers and the propensity of added dispersed NCRFs to adhere to this layer was measured. […] In the second approach, green CellTracker-tagged fibroblasts are mixed with orange CellTracker-tagged myocytes and cultured as aggregates (FIG. 4C,D). […] Disclosed herein, and supported by the disclosed data, the regulation of connexon aggregation via ZO-1 PDZ2 can dynamically adjust the level of differential adhesivity between cells in heterocellular contacts (e.g., fibroblasts and myocytes).

[4] = system: HeLa cells expressing wt Cx43; assay: Scrape loading assay of GJ intercellular communication (GJIC); type: cell-based; settings: relative to control and parental non-connexin expressing cells, p<0.05
From the text: It has been previously shown that inhibition of ZO-1 interaction with Cx43 increases GJ size in HeLa Cx43 and increases the proportion of Triton-insoluble-Cx43 in GJs, without altering Cx43 expression levels or turnover (Hunter et al., 2005). Based on this and other data, it was proposed that ZO-1 inhibits the transition from non-junctional and gap junctional Cx43 (Hunter et al. 2005). The question of where ZO-1 exerted this control to this point is unknown. Here, it is disclosed that ZO-1 regulates movement of connexons in the plasma membrane into GJs. FIG. 1 outlines how this works. The model disclosed herein predicts that inhibiting Cx43/ZO-1 interaction will result in an increase in GJ intercellular communication (GJIC) and a complementary decrease of free-membrane connexons. The well-characterized “scrape loading” technique was used to assess GJIC in HeLa cells expressing wt Cx43.

NVRM / NCRF aggregates = assay: Mixed aggregate culture of CellTracker-tagged fibroblasts and myocytes; type: cell-based, rat; settings: relative to control aggregates
Procedure: as §1, §2

cryoinjured mouse hearts [5] = assay: Arrhythmia induction (S2-S3 premature beat protocol, overdrive pacing) in Langendorff-perfused hearts one week after cryoinjury; type: in vivo
Procedure: Following cryoinjury by application of 3 mm liquid nitrogen chilled probe hearts in anesthetized mice were treated with a methycellulose patch containing either ˜9 ug of ACT1 peptide, ˜9 ug of reverse control peptide or no peptide (vehicle control). Mice were then allowed to recover for a week. A week following the injury, Langherdorf-perfused hearts from the mice were subject to 2 types of electrical stimulation inducing arrhythmia: a) S2-S3 premature beat protocol and b) Overdrive pacing. Electrical recordings were made and induced arrhythmic behaviors were categorized including delayed after depolarizations, ectopic beats, ventricular tachycardia, and ventricular fibrillation. […] Severity was graded according to the electrical abnormality noted (e.g. ventricular tachycardia was scored lower than ventricular fibrillation) and the persistence of the electrical abnormality (e.g. intermittent tachycardia was scored lower than persistent tachycardia). […] A similar trend is seen in response to overdrive pacing, although in this case the difference between the treatment and controls are not significant at p=0.05. The “All control” group represents pooled reverse and vehicle control counts.

[6] = S2-S3 premature beat protocol, methycellulose patch ~9 ug peptide at cryoinjury, hearts tested a week later
[7] = overdrive pacing, methycellulose patch ~9 ug peptide at cryoinjury, hearts tested a week later

Question: With “ACT1: Cx43 CT sequence RPRPDDLEI (SEQ ID NO:1), can be attached to antennapedia sequence: RQPKIWFPNRRKPWKK RPRPDDLEI (SEQ ID NO3) (optionally antennapedia sequence; UniProt P17302 374-382, looked up, fragment)” as the substance, how does the “hemichannel activity (EtdBr uptake), cells at low density” value ([1]; cells cultured at low density such that no GJs could form) read?
Answer: The value was “no affect”.

Question: And the “hemichannel activity (EtdBr uptake)” value ([1]; contacting HeLa Cx43 cells, relative to controls and non-connexin expressing HeLa cells, p<0.05)?
Answer: Its value is “significantly decreases EtdBr uptake; also recorded: decreased hemichannel activity”.

Question: And the “arrhythmia susceptibility of heart after cryo-infarction to the ventricle” value (cryoinjured mouse hearts [2])?
Answer: The value was “renders the heart refractory to arrhythmia-inducing electrophysiological protocols”.

Question: What about the “adherence of NCRFs to NVRM monolayers” value [3] of the same substance?
Answer: Its value is “decreased the adherence”.

Question: What about the “adherence of NCRFs to NVRM monolayers” value ([3]; listed as ACT1ACT1) of the same substance?
Answer: The value was “reduction in fibroblast (NCRF) adhesion”.

Question: And the “GJ intercellular communication (GJIC)” value [4]?
Answer: Its value is “significantly increased GJIC”.

Question: What about the “exclusion/loss of NCRFs from aggregates” value (NVRM / NCRF aggregates) of the same substance?
Answer: Its value is “increased exclusion/loss of NCRFs”.

Question: What about the “segregation of myocytes and fibroblasts in aggregates / cohesion index (% co-localization orange and green) of NVRMs” value (NVRM / NCRF aggregates) of the same substance?
Answer: The value was “tend to segregate into cohesive domains of like cells”.

Question: What about the “exclusion/loss of NCRFs from aggregates” value (NVRM / NCRF aggregates; listed as ACT1ACT1) of the same substance?
Answer: Its value is “Fibroblasts are excluded more”.

Question: And the “segregation of myocytes and fibroblasts in aggregates / cohesion index (% co-localization orange and green) of NVRMs” value (NVRM / NCRF aggregates; listed as ACT1ACT1)?
Answer: The value was “is higher”.

Question: What about the “S2-S3 Protocol Arrhythmic (numbers of mice displaying an arrhythmia response)” value (cryoinjured mouse hearts [5]; [6]) of the same substance?
Answer: The value was 1.

Question: And the “S2-S3 Protocol Stable (numbers of mice)” value (cryoinjured mouse hearts [5]; [6])?
Answer: Its value is 6.

Question: And the “Overdrive Pacing Arrhythmia (numbers of mice displaying an arrhythmia response)” value (cryoinjured mouse hearts [5]; [7])?
Answer: The value was 2.

Question: And the “Overdrive Pacing Stable (numbers of mice)” value (cryoinjured mouse hearts [5]; [7])?
Answer: Its value is 5.

Question: And the “Arrhythmia Severity Index Mean” value (cryoinjured mouse hearts [5]; severity graded by electrical abnormality and its persistence, patch ~9 ug peptide, a week after cryoinjury)?
Answer: Its value is 1.71.

Question: What about the “electrical stability in response to the S2-S3 arrhythmia induction protocol” value (cryoinjured mouse hearts [5]; vs controls, chi squares p=0.05 or below) of the same substance?
Answer: Its value is “improved electrical stability”.
